Laboratory results published in US8912216B2, “Hetaryl-[1,8]naphthyridine derivatives” (Merck Patent GmbH, priority 2010, dated 2014).

Tests used:
[1] = target: T1, GST-ALK5 (Homo sapiens, UniProt P36897); assay: In-vitro (enzyme) kinase assay, 384-well flashplate (Example 36); format: biochemical; conditions: GST-ALK5, GST-SMAD2 substrate, 3 mM ATP, 30° C., 45 min; read-out: TβR activity (Example 36)
T1 sequence (P36897 34-503): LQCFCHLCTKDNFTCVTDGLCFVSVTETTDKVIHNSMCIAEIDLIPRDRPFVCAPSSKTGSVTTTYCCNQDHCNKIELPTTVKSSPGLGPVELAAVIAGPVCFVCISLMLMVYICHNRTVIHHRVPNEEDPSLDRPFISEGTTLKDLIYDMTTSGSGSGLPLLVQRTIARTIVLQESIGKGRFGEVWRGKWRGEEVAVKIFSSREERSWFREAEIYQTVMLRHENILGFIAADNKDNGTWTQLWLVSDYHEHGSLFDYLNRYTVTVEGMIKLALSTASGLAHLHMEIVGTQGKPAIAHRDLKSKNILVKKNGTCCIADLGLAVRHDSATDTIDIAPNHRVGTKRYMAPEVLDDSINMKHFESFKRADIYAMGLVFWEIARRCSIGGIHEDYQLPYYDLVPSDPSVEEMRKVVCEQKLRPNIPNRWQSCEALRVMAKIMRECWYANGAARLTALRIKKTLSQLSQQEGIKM
Outline: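 Radiometric flashplate assay: 31.2 nM GST-ALK5 phosphorylating 439 nM GST-SMAD2 with 3 mM ATP plus ³³P-ATP, in HEPES/MgCl2/MnCl2/DTT/BSA buffer pH 7.4, 45 min at 30 °C, 5-10 compound concentrations. EDTA stop, filtration and washing, then radioactivity counted; IC50 derived from the curve.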

[2] = system: TGF-beta-induced phosphorylation of Smad2 and Smad3 in Mv1-Lu cells; assay: Inhibition of Smad2/3 phosphorylation in Mv1Lu cells (Example 35A); format: cell-based, mink Mustela vison; conditions: Neogale vison, Mv1-Lu cells, TGF-beta 1 5 ng/ml, phospho-Smad2/3 ELISA, read-out: TβR activity (Example 35A)
Outline: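 Serum-starved (16-20 h) Mv1-Lu mink lung epithelial cells were pre-incubated 1.5 h with compound dilutions (0.2% DMSO), then stimulated 1 h with 5 ng/ml TGF-beta 1. Phospho-Smad2 (Ser465/467)/Smad3 (Ser423/425) in lysates was measured by ELISA. IC50 came from dose-response fits between stimulated and unstimulated controls.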

| SMILES | IC50 [1] | IC50 [2] |
| --- | --- | --- |
| Fc1ccc(Cl)cc1-c1cc(-c2cncc(-c3ccc4c(c3)CCNC4)c2)c2cccnc2n1 [compound 155, 2-(5-Chloro-2-fluoro-phenyl)-4-[5-(1,2,3,4-tetrahydro-isoquinolin-6-yl)-pyridin-3-yl]-[1,8]naphthyridine] | < 100 nM | < 100 nM |
| Fc1ccc(Cl)cc1-c1cc(-c2cncc(-c3cccc(OCCN4CCCC4)c3)c2)c2cccnc2n1 [compound 158, 2-(5-Chloro-2-fluoro-phenyl)-4-{5-[3-(2-pyrrolidin-1-yl-ethoxy)-phenyl]-pyridin-3-yl}-[1,8]naphthyridine] | < 100 nM | < 100 nM |
| Fc1ccc(Cl)cc1-c1cc(-c2cncc(-c3cccc(C4CCNCC4)c3)c2)c2cccnc2n1 [compound 159, 2-(5-Chloro-2-fluoro-phenyl)-4-[5-(3-piperidin-4-yl-phenyl)-pyridin-3-yl]-[1,8]naphthyridine] | < 100 nM | 100 to 1000 nM |
| N#Cc1cccc(-c2cncc(-c3cc(-c4cc(Cl)ccc4F)nc4ncccc34)c2)n1 [compound 160, 5′-[2-(5-Chloro-2-fluoro-phenyl)-[1,8]naphthyridin-4-yl]-[2,3′]bipyridinyl-6-carbonitrile] | > 10000 nM | > 10000 nM |
| CC(=O)N1CCc2cc(-c3cncc(-c4cc(-c5cc(Cl)ccc5F)nc5ncccc45)c3)ccc21 [compound 164, 1-(5-{5-[2-(5-Chloro-2-fluoro-phenyl)-[1,8]naphthyridin-4-yl]-pyridin-3-yl}-2,3-dihydro-indol-1-yl)-ethanone] | < 100 nM | < 100 nM |
| O=C1CCc2cc(-c3cncc(-c4cc(-c5cc(Cl)ccc5F)nc5ncccc45)c3)cnc2N1 [compound 165, 6-{5-[2-(5-Chloro-2-fluoro-phenyl)-[1,8]naphthyridin-4-yl]-pyridin-3-yl}-3,4-dihydro-1H-[1,8]naphthyridin-2-one] | < 100 nM | < 100 nM |
| Nc1ncc(-c2cc(-c3cc(Cl)ccc3F)nc3ncccc23)c2ccncc12 [compound 167, 4-[2-(5-Chloro-2-fluoro-phenyl)-[1,8]naphthyridin-4-yl]-[2,7]naphthyridin-1-ylamine] | < 100 nM | < 100 nM |
| Fc1ccc(Cl)cc1-c1cc(-c2cncc(-c3cccc4c3CCNC4)c2)c2cccnc2n1 [compound 168, 2-(5-Chloro-2-fluoro-phenyl)-4-[5-(1,2,3,4-tetrahydro-isoquinolin-5-yl)-pyridin-3-yl]-[1,8]naphthyridine] | 1000 to 10000 nM | 1000 to 10000 nM |
| OCCN(CCO)c1cccc(-c2cncc(-c3cc(-c4cc(Cl)ccc4F)nc4ncccc34)c2)n1 [compound 170, 2-[{5′-[2-(5-Chloro-2-fluoro-phenyl)-[1,8]naphthyridin-4-yl]-[2,3′]bipyridinyl-6-yl}-(2-hydroxy-ethyl)amino]-ethanol] | < 100 nM | 100 to 1000 nM |
| CN1CCN(c2cncc(-c3cncc(-c4cc(-c5cc(Cl)ccc5F)nc5ncccc45)c3)c2)CC1 [compound 171, 2-(5-Chloro-2-fluoro-phenyl)-4-[5′-(4-methyl-piperazin-1-yl)-[3,3′]bipyridinyl-5 yl]-[1,8]naphthyridine] | < 100 nM | < 100 nM |
| CCN1CCc2ccc(-c3cncc(-c4cc(-c5cc(Cl)ccc5F)nc5ncccc45)c3)cc2C1 [compound 173, 2-(5-Chloro-2-fluoro-phenyl)-4-[5-(2-ethyl-1,2,3,4-tetrahydro-isoquinolin-7-yl)-pyridin-3-yl]-[1,8]naphthyridine] | < 100 nM | < 100 nM |
| CC(C)N1CCc2ccc(-c3cncc(-c4cc(-c5cc(Cl)ccc5F)nc5ncccc45)c3)cc2C1 [compound 176, 2-(5-Chloro-2-fluoro-phenyl)-4-[5-(2-isopropyl-1,2,3,4-tetrahydro-isoquinolin-7-yl)-pyridin-3-yl]-[1,8]naphthyridine] | < 100 nM | < 100 nM |
| Fc1ccc(Cl)cc1-c1cc(-c2ccc(-c3ccccc3)nc2)c2cccnc2n1 [compound 5599, 2-(5-Chloro-2-fluoro-phenyl)-4-(6-phenyl-pyridin-3-yl)-[1,8]naphthyridine] | > 10000 nM | > 10000 nM |

Now from value to compound:

| IC50 [1] | IC50 [2] | SMILES |
| --- | --- | --- |
| < 100 nM | < 100 nM | Fc1ccc(Cl)cc1-c1cc(-c2cncc(-c3ccc(OCCN4CCCC4)cc3)c2)c2cccnc2n1 [compound 156, 2-(5-Chloro-2-fluoro-phenyl)-4-{5-[4-(2-pyrrolidin-1-yl-ethoxy)-phenyl]-pyridin-3-yl}-[1,8]naphthyridine] |
| 100 to 1000 nM | 100 to 1000 nM | CC1(C)CC(=O)Nc2ccc(-c3cncc(-c4cc(-c5cc(Cl)ccc5F)nc5ncccc45)c3)cc21 [compound 157, 6-{5-[2-(5-Chloro-2-fluoro-phenyl)-[1,8]naphthyridin-4-yl]-pyridin-3-yl}-4,4-dimethyl-3,4-dihydro-1H-quinolin-2-one] |
| < 100 nM | < 100 nM | Fc1ccc(Cl)cc1-c1cc(-c2cncc(-c3ccc(OCCN4CCOCC4)cc3)c2)c2cccnc2n1 [compound 161, 2-(5-Chloro-2-fluoro-phenyl)-4-{5-[4-(2-morpholin-4-yl-ethoxy)-phenyl]-pyridin-3-yl}-[1,8]naphthyridine] |
| < 100 nM | < 100 nM | CN(C)CCc1ccc(-c2cncc(-c3cc(-c4cc(Cl)ccc4F)nc4ncccc34)c2)cc1 [compound 162, [2-(4-{5-[2-(5-Chloro-2-fluoro-phenyl)-[1,8]naphthyridin-4-yl]-pyridin-3-yl}-phenyl)-ethyl]-dimethyl-amine] |
| < 100 nM | < 100 nM | CN1CCc2ccc(-c3cncc(-c4cc(-c5cc(Cl)ccc5F)nc5ncccc45)c3)cc2C1 [compound 163, 2-(5-Chloro-2-fluoro-phenyl)-4-[5-(2-methyl-1,2,3,4-tetrahydro-isoquinolin-7-yl)-pyridin-3-yl]-[1,8]naphthyridine] |
| < 100 nM | < 100 nM | NCCc1cccc(-c2cncc(-c3cc(-c4cc(Cl)ccc4F)nc4ncccc34)c2)c1 [compound 166, 2-(3-{5-[2-(5-Chloro-2-fluoro-phenyl)-[1,8]naphthyridin-4-yl]-pyridin-3-yl}-phenyl)-ethylamine] |
| < 100 nM | 100 to 1000 nM | Nc1ccc(-c2cncc(-c3cc(-c4cc(Cl)ccc4F)nc4ncccc34)c2)cn1 [compound 169, 5′-[2-(5-Chloro-2-fluoro-phenyl)-[1,8]naphthyridin-4-yl]-[3,3′]bipyridinyl-6-ylamine] |
| < 100 nM | < 100 nM | Fc1ccc(Cl)cc1-c1cc(-c2cncc(-c3ccc(CCN4CCCC4)cc3)c2)c2cccnc2n1 [compound 172, 2-(5-Chloro-2-fluoro-phenyl)-4-{5-[4-(2-pyrrolidin-1-yl-ethyl)-phenyl]-pyridin-3-yl}-[1,8]naphthyridine] |
| < 100 nM | < 100 nM | CC(C)N1CCC(c2ccc(-c3cncc(-c4cc(-c5cc(Cl)ccc5F)nc5ncccc45)c3)cc2)CC1 [compound 174, 2-(5-Chloro-2-fluoro-phenyl)-4-{5-[4-(1-isopropyl-piperidin-4-yl)-phenyl]-pyridin-3-yl}-[1,8]naphthyridine] |
| < 100 nM | < 100 nM | Fc1ccc(Cl)cc1-c1cc(-c2cncc(-c3ccc4c(c3)CNC4)c2)c2cccnc2n1 [compound 175, 2-(5-Chloro-2-fluoro-phenyl)-4-[5-(2,3-dihydro-1H-isoindol-5-yl)-pyridin-3-yl]-[1,8]naphthyridine] |
| < 100 nM | < 100 nM | CN(C)CCc1ccc(-c2cncc(-c3cc(-c4cc(F)ccc4F)nc4ncccc34)c2)cc1 [compound 177, [2-(4-{5-[2-(2,5-Difluoro-phenyl)-[1,8]naphthyridin-4-yl]-pyridin-3-yl}-phenyl)-ethyl]-dimethyl-amine] |
| 100 to 1000 nM | 100 to 1000 nM | CN(C)CCNC(=O)c1ccc(-c2cncc(-c3cc(-c4cc(Cl)ccc4F)nc4ncccc34)c2)cn1 [compound 178, 5′-[2-(5-Chloro-2-fluoro-phenyl)-[1,8]naphthyridin-4-yl]-[3,3′]bipyridinyl-6-carboxylic acid (2-dimethylamino-ethyl)-amide] |
